Measured values taken from patent publication US20070219180A1, “Muscle Relaxtion Accelerator and Therapeutic Agent for Muscular Tissue Diseases Such as Muscle Relaxation Failure” (priority 2004, published 2007).
Where “and” joins values, the source holds several entries; their conditions need not be identical. Equal values may be shown once.

What was measured:
white rabbits = experiment: Experiment 9: effect of the compound on blood pressure in rabbits; type: in vivo, rabbit; conditions: for Mean blood pressure relative to before administration (100%): before administration (defined as 100%)
Protocol: Effects of the compound on blood pressure were examined in the same way as described in Experiment 2. In this experiment, Control and Tests 6-9 were anesthetized with a single intravenous injection of 20 mg/kg methohexital sodium under artificial respiration (Type AR1Narishige Group) using endotracheal intubation. The 1,4-benzothiazepine derivative or pharmaceutically acceptable salt thereof was used as the compound in this experiment.
Five white rabbits (weight: 2.7-2.9 kg) were used in this experiment: a rabbit (weight: 2.8 kg, Control) that received control solution, a rabbit (weight: 2.7 kg, Test 6) that received the compound at 0.04 mg/kg/min, a rabbit (weight: 2.7 kg, Test 7) that received the compound at 0.04 mg/kg/min, a rabbit (weight: 2.9 kg, Test 8) that received the compound at 0.4 mg/kg/min, and a rabbit (weight: 2.8 kg, Test 9) that received the compound at 0.4 mg/kg/min.
Each rabbit was anesthetized with a single intravenous injection of 20 mg/kg methohexital sodium under artificial respiration (Type AR1 Narishige Group) using endotracheal intubation. Subsequently, α-chloralose was injected into the ear veins at 90 mg/kg/20 min. A DMSO solution of the compound was prepared by dissolving 100 mg of the compound in 1 ml of dimethylsulfoxide (DMSO), and stored at 4° C.
In this experiment, injection catheters for the compound for administration of drugs were inserted into the right external jugular veins of the rabbits and microchip catheters (SPC-320, Millar) for blood pressure measurement were inserted via the right common arteries. A 2-lead electrocardiogram was examined and blood pressure, cardiac rate, and electrocardiogram of the rabbits were monitored for 10 minutes. When the data stabilized, the electrocardiogram, systolic pressure and diastolic pressure of each rabbit were recorded on a personal computer via an A/D converter. The Control rabbit was administered 5% dextrose solution containing 0.1% DMSO as a control solution for 10 minutes at 0.1 ml/min. Test 6 and 7 rabbits were administered 5% dextrose containing the compound at 0.1 ml/min, and then the compound at an infusion rate of 0.04 mg/kg/min. Test 8 and 9 rabbits were administered 5% dextrose containing the compound at 0.1 ml/min, and then the compound at an infusion rate of 0.4 mg/kg/min.
Systolic pressure (mmHg) and diastolic pressure (mmHg) of the Control and Test rabbits were measured over 5 heart beats before administration of the solution, and 5 and 10 minutes after administration. The mean blood pressure (mmHg) was calculated from the systolic pressure (mmHg) and the diastolic pressure (mmHg), using the formula: mean blood pressure (mmHg)=[(systolic pressure+diastolic pressure)×½].

[1] = tested on: binding of troponin I to the actin-tropomyosin complex; experiment: Experiment 4 and comparison example: co-precipitation (binding) of troponin I with the actin-tropomyosin complex in the presence of EGTA; design: species or system swine; conditions: 10 mM EGTA, 100,000×g 120 min 25° C.
Protocol: The actin-tropomyosin complex and the troponin C-I complex are usually detected by analyzing the precipitate obtained by ultracentrifugation of a mixture containing the actin-tropomyosin complex and the troponin C-I complex for 120 minutes at 100,000×g at 25° C. The binding of the troponin C-I complex to the actin-tropomyosin complex in muscle tissues can be confirmed by the detected actin-tropomyosin complex and the detected troponin C-I complex. For example, when a mixture containing the actin-tropomyosin complex and the troponin C-I complex is ultracentrifuged in the presence of EGTA as a calcium chelating agent (in other words, in the absence of calcium ions), the actin-tropomyosin complex and the troponin C-I complex combine each other to precipitate together. Detection of troponin I in the precipitate using SDS-gel electrophoresis allows confirmation that the precipitate contains a complex formed by the actin-tropomyosin complex and the troponin C-I complex.
A precipitate due to binding of the actin-tropomyosin complex and troponin I is usually not formed when a mixture containing the actin-tropomyosin complex, troponin and propranolol (a β-blocker) used as a therapeutic agent for heart failure is ultracentrifuged at 100,000×g for 120 minutes 25° C.
Swine muscle-derived actin, chicken gizzard-derived tropomyosin and swine myocardium-derived troponin used in this experiment were purchased from Sigma-Aldrich Corporation, and other unspecified reagents used in this experiment were purchased from Wako Pure Chemical Industries Ltd.
A 500 μl sample was prepared by adding 4.2 μg of actin, 2.1 μg of tropomyosin and 14 μg of troponin to 500 μl of a reaction solution containing 60 mM KCl, 20 mM MOPS (3-morpholinopropanesulfonic acid), 2 mM of MgCl2, 0.05 μg of pepstatin A, and 15 mM 2-mercaptoethanol. After centrifugation of this sample at 2,000×g for 10 minutes at 25° C., the precipitate was removed and the resulting supernatant was distributed to separate test tubes containing 10 mM of EGTA, and each tube was determined as a test sample.
Each test sample was reacted for 120 minutes at 25° C. and centrifuged at 100,000×g for 120 minutes at 25° C., and the supernatants were removed. After reaction solution was gently added to the removed precipitate so as not to suspend the precipitate, the precipitate was again removed by suction, washed, and determined as a test precipitate.
A sample buffer for polyacrylamide gel electrophoresis (SDS-PAGE) was added to each washed test precipitate and mixed well to suspend the test precipitate. The resulting suspension was electrophoresized on a gel (PAG MINI “No. 1” 10/20) for about 1 hour at 40 mA. After electrophoresis, the suspension was silver-stained using “Daiichi” 2D-silver staining reagent (Daiichi Pure Chemicals Co., Ltd), and washed with distilled water and dried. The amount of precipitate in each silver-stained protein band obtained by gel electrophoresis was quantitated using a densitometer.
The amounts of precipitate of troponin I in the second to fifth test precipitates were calculated as ratios of the amount of precipitate of troponin I in the first test precipitate, which was obtained without the compound (the concentration of the compound was 0 M).
The affinity of troponin I for the actin-tropomyosin complex was measured using the same method as in Experiment 4, but using propranolol (a β-blocker which is used as a therapeutic agent for heart failure) for comparison with the compound in the invention.
A 500 μl sample was prepared by adding 4.2 μg of actin, 2.1 μg of tropomyosin and 14 μg of troponin I to 500 μl of a reaction solution containing 60 mM KCl, 20 mM MOPS (3-morpholinopropanesulfonic acid), 2 mM MgCl2, 0.05 μg of pepstatin A, and 15 mM 2-mercaptoethanol. […]

`COc1ccc2c(c1)CN(C(=O)CCN1CCC(Cc3ccccc3)CC1)CCS2` [the compound, 4-[3-(4-benzylpiperidine-1-yl)propionyl]-7-methoxy-2,3,4,5-tetrahydro-1,4-benzothiazepine] was tested, and the Mean blood pressure (white rabbits; infusion rate 0.04 mg/kg/min, after 5 minutes) was 79.5 mmHg and 82.0 mmHg, the Mean blood pressure (white rabbits; infusion rate 0.04 mg/kg/min, after 10 minutes) was 85.9 mmHg and 93.4 mmHg and the Mean blood pressure (white rabbits; infusion rate 0.04 mg/kg/min, before administration) was 85.6 mmHg and 87.7 mmHg. The “Mean blood pressure relative to before administration (100%)” value (white rabbits; infusion rate 0.04 mg/kg/min) was “(100%)”, the Mean blood pressure (white rabbits; infusion rate 0.4 mg/kg/min, after 5 minutes) was 35.7 mmHg and 64.5 mmHg and the Mean blood pressure (white rabbits; infusion rate 0.4 mg/kg/min, after 10 minutes) was 41.7 mmHg and 46.3 mmHg. The Mean blood pressure (white rabbits; infusion rate 0.4 mg/kg/min, before administration) was 74.0 mmHg and 97.7 mmHg, the “Mean blood pressure relative to before administration (100%)” value (white rabbits; infusion rate 0.4 mg/kg/min) was “(100%)” and the “Precipitate of troponin I (ratio to the sample without drug)” value ([1]; drug concentration 10^−4 mol) was 2.8. The “Precipitate of troponin I (ratio to the sample without drug)” value ([1]; drug concentration 10^−5 mol) was 2.2, the “Precipitate of troponin I (ratio to the sample without drug)” value ([1]; drug concentration 10^−6 mol) was 1.8 and the “Precipitate of troponin I (ratio to the sample without drug)” value ([1]; drug concentration 10^−7 mol) was 1.2.
